According to US6455593B1, “Method of dynamic retardation of cell cycle kinetics to potentiate cell damage” (priority 1995, dated 2002):

Test system: human promonocytic lymphoma cells (U937)
Experiment: Microculture indicator system (MIS), MTT growth inhibition assay with bivariate serial dilutions
Assay type: cell-based
Settings: for Potentiation of DNA damage by STSP as RA: U937, concentrations less than IC40, STSP as the TCI
Protocol: Microcultures of human promonocytic lymphoma cells (U937) (“the U937 cells”) originally obtained from the American Type Culture Collection (CRL 1593) and later grown by Dr. K. Zoon at the FDA in Bethesda, Md. were set up in a multiwell plate with serial two-fold dilutions of dThd in tissue culture growth medium (RPMI 1640 plus 10% Nurserum and antibiotics). The volume of medium per well was 100 μl and the cell number per well was about 1×10^5. The plate was incubated at 37° C. for 24 hr.
A dye, 3-[4,5-dimethylthiazol-2-yl]-2,5-diphenyl-tetrazolium bromide (MTT), was used as a chromogenic indicator of the metabolically active cell mass. Viable cells metabolize the dye and accumulate a reduced formazan product (blue color) which is solubilized for colorimetry. Mossman T, J. Immunol. Methods 5:55-63 (1983); Li L and Lau B H S, In Vitro Cell Dev. Biol. 29A:531-536 (1993). The MTT assay has been established as useful for measuring either growth inhibition or population killing. Plowman, supra. The MTT method is ideal for cells tested in suspension growth, and can also be used for some cells growing in monolayers. […] Alley, supra; Hofs, supra; Wilson J K et al., Br. J. Cancer 62:189-94 (1990); Plowman, supra.
Thirty μl of 0.5% MTT in phosphate buffered saline was added to each microculture well at the appropriate time. After incubation at 37° C. for 3 hr, 120 μl of an aqueous solution of 10 % SDS with 0.01 N HCl was added to release and dissolve formazan product. This was accomplished by overnight incubation of the plate at 37° C. After careful mixing of the microwell contents by placing the plates on an orbital shaker for 5 minutes the absorbencies were quantitated by spectrophotometry at 570 nm with a Ceres UV 900 HDI microwell plate reader (from Biotek Instruments Inc, Winooski, Vt. 05404-0998). Absorbance data was normalized to a blank well containing all reagents without cells and was collected semi-automatically.
Flat-bottom 96-well plates of tissue culture quality (Corning or Costar) were set up with two-fold serial dilutions of each agent to be tested, e.g., the RA and TCI, using a multichannel pipettor with adjustable volume, e.g., Costar or Rainin, to perform serial mixing. This set-up is diagrammed in FIG. 12. […] In each plate, a total of 59 wells then contained bivariate agent combinations, the bivariate serial dilutions.
Agents were serially diluted by serial mixing in two separate plates or series of wells, and then were combined prior to addition of a fixed volume and density of the U937 cells in a suspension calculated to deliver about 1×10^5 cells per well.
Cells were added after serial dilutions of the dThd had been dispensed. Cells were dispensed at about 10×10^4 cells per microwell to provide optimal sensitivity of detection of cell damage in subsequent calorimetric assays. […] The final volume of medium was 100 μl/well. The plates were further incubated at 37° C. for a total duration of 18-24 h. The dye MTT was used as a chromogenic indicator of the residual and metabolically active cell mass. (Described in Example 1).
In this MTT assay, normalized absorbance data was collected semi-automatically from each microculture well with a Ceres UV 900 HD1 plate reader, from Biotek Instruments Inc., Winooski, V T 05404-0998, stored in an EIA file under the Ceres 900 program, transferred in comma delimited format to a floppy diskette, and imported into a spread sheet program (Borland Quattro Pro) for data manipulations.

[1] = U937, total 17 H, STSP 17 H, dGuo 0 H, dGuo 0.01 mM (ninth dilution, c19), STSP nM by row: r7 100, r8 50, r9 25, r10 12.5, r11 6.25, r12 3.13, r13-r14 0
[2] = U937, total 17 H, STSP 17 H, dGuo 0 H, dGuo 0.01 mM (tenth dilution, c21), STSP nM by row: r7 100, r8 50, r9 25, r10 12.5, r11 6.25, r12 3.13, r13-r14 0
[3] = U937, total 17 H, STSP 17 H, dGuo 0 H, dGuo 0.02 mM, STSP nM by row: r7 100, r8 50, r9 25, r10 12.5, r11 6.25, r12 3.13, r13-r14 0
[4] = U937, total 17 H, STSP 17 H, dGuo 0 H, dGuo 0.06 mM, STSP nM by row: r7 100, r8 50, r9 25, r10 12.5, r11 6.25, r12 3.13, r13-r14 0
[5] = U937, total 17 H, STSP 17 H, dGuo 0 H, dGuo 0.09 mM, STSP nM by row: r7 100, r8 50, r9 25, r10 12.5, r11 6.25, r12 3.13, r13-r14 0
[6] = U937, total 17 H, STSP 17 H, dGuo 0 H, dGuo 3.00 mM, STSP nM by row: r7 100, r8 50, r9 25, r10 12.5, r11 6.25, r12 3.13, r13-r14 0

SMILES: CN(Cc1cnc2nc(N)nc(N)c2n1)c1ccc(C(=O)N[C@@H](CCC(=O)O)C(=O)O)cc1 [MTX, methotrexate]
- inhibition at 0.004 µM (Homo sapiens, U-937, U937, total 20 H, STSP 16 H, MTX 4 H, MTX 4 nM, STSP nM: 200, 100, 50, 25, 12.5, 6.25, 0): 20%
- inhibition at 0.008 µM (Homo sapiens, U-937, U937, total 20 H, STSP 16 H, MTX 4 H, MTX 8 nM, STSP nM: 200, 100, 50, 25, 12.5, 6.25, 0): 38%
- inhibition at […] (Homo sapiens, U-937, U937, total 20 H, STSP 16 H, MTX 4 H, MTX 16 nM, STSP nM: 200, 100, 50, 25, 12.5, 6.25, 0): 48%
- inhibition at […] (Homo sapiens, U-937, U937, total 20 H, STSP 16 H, MTX 4 H, MTX 31 nM, STSP nM: 200, 100, 50, 25, 12.5, 6.25, 0): 43%
- inhibition at […] (Homo sapiens, U-937, U937, total 20 H, STSP 16 H, MTX 4 H, MTX 63 nM, STSP nM: 200, 100, 50, 25, 12.5, 6.25, 0): 47%
- inhibition at 0.125 µM (Homo sapiens, U-937, U937, total 20 H, STSP 16 H, MTX 4 H, MTX 125 nM, STSP nM: 200, 100, 50, 25, 12.5, 6.25, 0): 52%
- inhibition at […] (Homo sapiens, U-937, U937, total 20 H, STSP 16 H, MTX 4 H, MTX 250 nM, STSP nM: 200, 100, 50, 25, 12.5, 6.25, 0): 57%
- inhibition at 0.5 µM (Homo sapiens, U-937, U937, total 20 H, STSP 16 H, MTX 4 H, MTX 500 nM, STSP nM: 200, 100, 50, 25, 12.5, 6.25, 0): 62%
- inhibition at 1 µM (Homo sapiens, U-937, U937, total 20 H, STSP 16 H, MTX 4 H, MTX 1000 nM, STSP nM: 200, 100, 50, 25, 12.5, 6.25, 0): 61%
- Potentiation of DNA damage by STSP as RA: proved successful in potentiating DNA damage by STSP
- Combined results ratio (U937, total 20 H, STSP 16 H, MTX 4 H, MTX 4 nM, STSP nM: 200, 100, 50, 25, 12.5, 6.25, 0): 1.0
- Combined results ratio (U937, total 20 H, STSP 16 H, MTX 4 H, MTX 8 nM, STSP nM: 200, 100, 50, 25, 12.5, 6.25, 0): 1.0
- Combined results ratio (U937, total 20 H, STSP 16 H, MTX 4 H, MTX 16 nM, STSP nM: 200, 100, 50, 25, 12.5, 6.25, 0): 1.0
- Combined results ratio (U937, total 20 H, STSP 16 H, MTX 4 H, MTX 31 nM, STSP nM: 200, 100, 50, 25, 12.5, 6.25, 0): 1.0
- Combined results ratio (U937, total 20 H, STSP 16 H, MTX 4 H, MTX 63 nM, STSP nM: 200, 100, 50, 25, 12.5, 6.25, 0): 1.0
- Combined results ratio (U937, total 20 H, STSP 16 H, MTX 4 H, MTX 125 nM, STSP nM: 200, 100, 50, 25, 12.5, 6.25, 0): 1.0
- Combined results ratio (U937, total 20 H, STSP 16 H, MTX 4 H, MTX 250 nM, STSP nM: 200, 100, 50, 25, 12.5, 6.25, 0): 1.0
- Combined results ratio (U937, total 20 H, STSP 16 H, MTX 4 H, MTX 500 nM, STSP nM: 200, 100, 50, 25, 12.5, 6.25, 0): 1.0
- Combined results ratio (U937, total 20 H, STSP 16 H, MTX 4 H, MTX 1000 nM, STSP nM: 200, 100, 50, 25, 12.5, 6.25, 0): 1.0

SMILES: COC(=O)[C@@]1(O)C[C@H]2O[C@]1(C)n1c3ccccc3c3c4c(c5c6ccccc6n2c5c31)C(=O)NC4 [K252a]
- combined results ratio, K252a only (U937, K252a only 15 H, K252a uM by row: r7 2, r8 1, r9 0.5, r10 0.25, r11 0.13, r12 0.06): 1.0
- combined results ratio, K252a only (U937, K252a only 20 H, K252a nM by row: r7 625, r8 313, r9 156, r10 78.1, r11 39.1, r12 19.5): 1.0

SMILES: Nc1nc2c(ncn2[C@H]2C[C@H](O)[C@@H](CO)O2)c(=O)[nH]1 [dGuo]
- Combined results ratio (CRR), dGuo 0.02 mM (U937, dGuo 0.02 mM for 0 H, STSP for 17 H, total 17 H, STSP nM: 100,50,25,12.5,6.25,3.13, r13 dGuo alone): 1.0
- Growth inhibition (MTT), dGuo 0.02 mM (U937, dGuo 0.02 mM for 0 H, STSP for 17 H, total 17 H, STSP nM: 100,50,25,12.5,6.25,3.13, r14 dGuo alone): 10%
- Combined results ratio (CRR), dGuo 0.06 mM (U937, dGuo 0.06 mM for 0 H, STSP for 17 H, total 17 H, STSP nM: 100,50,25,12.5,6.25,3.13, r13 dGuo alone): 1.0
- Growth inhibition (MTT), dGuo 0.06 mM (U937, dGuo 0.06 mM for 0 H, STSP for 17 H, total 17 H, STSP nM: 100,50,25,12.5,6.25,3.13, r14 dGuo alone): 25%
- Combined results ratio (CRR), dGuo 0.09 mM (U937, dGuo 0.09 mM for 0 H, STSP for 17 H, total 17 H, STSP nM: 100,50,25,12.5,6.25,3.13, r13 dGuo alone): 1.0
- Growth inhibition (MTT), dGuo 0.09 mM (U937, dGuo 0.09 mM for 0 H, STSP for 17 H, total 17 H, STSP nM: 100,50,25,12.5,6.25,3.13, r14 dGuo alone): 57%
- Combined results ratio (CRR), dGuo 3.00 mM (U937, dGuo 3.00 mM for 0 H, STSP for 17 H, total 17 H, STSP nM: 100,50,25,12.5,6.25,3.13, r13 dGuo alone): 1.0
- Growth inhibition (MTT), dGuo 3.00 mM (U937, dGuo 3.00 mM for 0 H, STSP for 17 H, total 17 H, STSP nM: 100,50,25,12.5,6.25,3.13, r14 dGuo alone): 93%
- Combined results ratio (CRR), dGuo […] (U937, dGuo […] for 0 H, STSP for 17 H, total 17 H, STSP nM: 100,50,25,12.5,6.25,3.13, r13 dGuo alone): 1.0
- Combined results ratio [1]: 1.0
- Growth inhibition (MTT) [1]: 2%
- Combined results ratio [2]: 1.0
- Growth inhibition (MTT) [2]: 2%
- Combined results ratio [3]: 1.0
- Growth inhibition (MTT) [3]: 10%
- Combined results ratio [4]: 1.0
- Growth inhibition (MTT) [4]: 25%
- Combined results ratio [5]: 1.0
- Growth inhibition (MTT) [5]: 57%
- Combined results ratio [6]: 1.0
- Growth inhibition (MTT) [6]: 93%

SMILES: Cn1c(=O)c2c(ncn2C)n(C)c1=O [caffeine]
- Interaction with STSP (differential O/S plot) (caffeine 0.1-2 mM): strongly antagonized the action of STSP

SMILES: O=c1[nH]c(=O)n([C@H]2C[C@H](O)[C@@H](CO)O2)cc1F [floxuridine]
- Potentiation of DNA damage by STSP as RA: proved successful in potentiating DNA damage by STSP

SMILES: Nc1ccn([C@@H]2O[C@H](CO)[C@@H](O)[C@@H]2O)c(=O)n1 [ara-C, 1-β-D-arabinofuranosylcytosine]
- Potentiation of DNA damage by STSP as RA: proved successful in potentiating DNA damage by STSP

SMILES: N.N.[Cl][Pt][Cl] [cisplatin]
- combined results ratio, Cisplatin only (U937, Cisplatin only 16 H, Cisplatin uM by row: r7 *****, r8 *****, r9 *****, r10 5.00, r11 2.50, r12 1.25): 1.0
- combined results ratio, Cisplatin only (U937, total 19 H, cisplatin 16 H, no STSP, cisplatin uM by row: r7 80, r8 40, r9 20, r10 10, r11 5, r12 2.5): 1.0
